The values that follow come from patent US11136601B2, “Conversion of S-lignin compounds to useful intermediates” (Alliance for Sustainable Energy, LLC, priority 2018, dated 2021).

By Km is commonly meant the substrate concentration at which the rate is half of its maximum. Broadly, the kcat is the number of substrate molecules converted per active site and unit of time at saturation.

The target in data set [1] is T1, VanAB (vanillate demethylase; purified VanA and VanB subunits) (Pseudomonas putida, UniProt Q88GI6). Nature of the data set: VanAB in vitro enzymatic assay (kinetics and specific activity, NADPH consumption at 340 nm). The following applies: for VanAB specific activity: 100 μM substrate, pH 7.5; for VanAB specific activity / Kcat: 100 μM NADPH; for Kcat: Michaelis-Menten kinetics, 20 mM Tris-HCl pH 7.5. The protocol: VanAB activity was also tested towards vanillate analogous substrates such as vanillin, ferulic acid, sinapinic acid, methyl vanillate, ethyl vanillate, and guaiacol.
T1 sequence (Q88GI5 entry or part of it, one chain of several): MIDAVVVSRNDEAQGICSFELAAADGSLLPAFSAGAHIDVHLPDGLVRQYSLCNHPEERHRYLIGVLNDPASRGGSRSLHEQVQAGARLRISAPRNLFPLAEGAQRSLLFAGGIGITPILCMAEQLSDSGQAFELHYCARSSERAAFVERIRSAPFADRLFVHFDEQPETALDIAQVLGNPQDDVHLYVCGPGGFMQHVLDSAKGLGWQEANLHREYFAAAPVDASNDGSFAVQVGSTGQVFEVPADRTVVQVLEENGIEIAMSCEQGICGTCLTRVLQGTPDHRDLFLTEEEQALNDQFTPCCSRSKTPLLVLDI
(§1) Activity assay were followed by cofactor NADPH consumption monitored spectrophotometrically at 340 nm.

Data set [2] has as its system P. putida CJ486 (second copy vanAB overexpressed in genome). The data set can be described thus: Toxicity assessment of S-lignin derived monomers, growth (OD600) of engineered strain CJ486. The following applies: strain CJ486, M9 minimal media with 20 mM glucose. Type of data set: cell-based, Pseudomonas putida. From the text:
(§2) FIG. 9 illustrates: Panel A. Wild-type P. putida KT24401 and Panel B. P. putida CJ486 (second copy vanAB overexpressed in genome), both according to some embodiments of the present disclosure. […] Cultures were sampled periodically to evaluate growth by OD600 and metabolite concentrations in the media using HPLC. Each point represents the average of two measurements with error bars representing their range.
(§3) FIG. 10 illustrates: Panel A. Wild-type P. putida KT2440; and Panel B. P. putida CJ486 (second copy vanAB overexpressed in genome), both according to some embodiments of the present disclosure. Cells were grown in M9 minimal medium containing 20 mM glucose and various concentrations of SAL. Cultures were sampled periodically to evaluate growth by OD600 and metabolite concentrations in the media using HPLC. Each point represents the average of two measurements with error bars representing their range.
(§4) FIG. 11 illustrates: Panel A. Wild-type P. putida KT2440; and Panel B. P. putida CJ486 (second copy vanAB overexpressed in genome), both according to some embodiments of the present disclosure. […] Cultures were sampled periodically to evaluate growth by OD600 and metabolite concentrations in the media using HPLC. Each point represents the average of two measurements with error bars representing their range.
(§5) To evaluate this, the engineered strain CJ486 and wild-type strain were grown in M9 minimal media containing 20 mM glucose and various concentrations of the S-lignin monomers.
(§6) Strains were cultivated overnight in LB medium, washed once with 1×M9 medium (6.78 g/L disodium phosphate, 3 g/L monopotassium phosphate, 0.5 g/L NaCl, 1 g/L NH4Cl, 2 mM MgSO4, 100 μM CaCl2), and 18 μM FeSO4, pH 7.0) and used to inoculate 125 mL baffled flasks containing M9 minimal media supplemented with various concentrations of S-lignin monomers (SA, 3-MGA or syringaldehyde (SAL), stock solution dissolved in 2% DMSO) and 20 mM glucose in some cases, to an optical density of 0.1 and incubated shaking at 225 rpm, 30° C. Cultures were sampled periodically by removing 1 mL that was used to measure the OD600 using a spectrophotometer (DU640 Beckman Coulter). In the case of 3-MGA provided to wild-type strain KT2440, SN166 and SN175, the reaction was downscaled to 50 mL baffled flasks containing 10 mL minimal media and the experiment was performed in duplicate.

Data set [3] relates to P. putida KT2440 wild-type. The data set can be described thus: Toxicity assessment of S-lignin derived monomers, growth (OD600) of wild-type strain. The class given is cell-based, Pseudomonas putida. The following applies: wild-type KT2440, M9 minimal media with 20 mM glucose.
From the text: as §2, §3, §4, §5, §6

The target in data set [4] is T1, VanAB (vanillate demethylase; purified VanA and VanB subunits). Nature of the data set: VanAB in vitro time course of substrate consumption and product formation (HPLC). The class given is biochemical, P. putida KT2440. The following applies: 30 minutes time course, 100 μM substrate, VanAB 1.3 μM, room temperature. The protocol: FIG. 13 illustrates time course of VA consumption/PCA production and SA consumption/3-MGA production, according to some embodiments of the present disclosure. VanAB (1.3 μM) was incubated with 100 μM VA or SA at room temperature, in the presence of 0.5 μM NADPH. Results are an average of at least two experiments.
FIG. 14 illustrates time-course of 3MGA consumption and GA formation, according to some embodiments of the present disclosure.
as §1
Metabolites analysis: Samples from the in vivo experiments were centrifuged to remove the cells and the supernatants were filtered through a 0.2 μm syringe filter and metabolite concentrations were analyzed on an Agilent 1100 series HPLC equipped with Phenominex Rezex™ RFQ-Fast Acid H^+ (8%), LC Column, a diode array detector, and refractive index detector and a 0.01 N H2SO4 mobile phase. The products were identified by comparing the retention times and spectral profiles with pure compounds. Shake flask experiments were performed in triplicate and the standard deviation of the triplicate measurement were calculated using the following equation: in which x is each value in a sample, x is the average of the values, and n is the number of values. The same method was employed to analyze the metabolites from the in vitro reaction. PDC compounds was analyzed and quantified by ^1H NMR spectrum. […], of fermentation broth was diluted in 400 μL of deuterium oxide (Isotope Laboratories Inc.) and 50 μL of deuterium oxide containing known mass of the internal standard succinic acid.

Substrate in data set [5]: COc1cc(C(=O)O)ccc1O
The data set can be described thus: purified protein, by the assay type. The following applies: other: apparent constant (substrate inhibition kinetics); NADPH measured in the presence of VA; pH 7.5; 30.0 °C.

Substrate in data set [6]: COc1cc(C(=O)O)cc(OC)c1O
The data set can be described thus: purified protein, by the assay type. To be noted: other: Michaelis-Menten kinetics, 100 μM NADPH, 20 mM Tris-HCl pH 7.5, 30.0 °C.

The mark [7] stands for this setting: apparent constant (substrate inhibition kinetics), NADPH measured in the presence of VA.

Regarding `COc1cc(C(=O)O)cc(O)c1O` [3-MGA, 3-O-methyl gallate], in data set [1], the VanAB specific activity is 264 ± 86 U/mg and the Kcat is 0.435 ± 0.0467 s⁻¹. Moreover, the Kcat in data set [1] (listed as 3MGA) worked out at 0.435 ± 0.0467 s⁻¹.

In the case of `CCOC(=O)c1ccc(O)c(OC)c1` [Ethylvanillate, ethyl vanillate], the figures for the VanAB specific activity in data set [1] and in data set [1] (listed as ethyl vanillate) were 100 ± 27 U/mg and 100±27 U/mg, respectively.

In the case of `O=C(O)c1cc(O)c(O)c(O)c1` [Gallate, gallic acid], in data set [2], the “concentration at which growth was completely inhibited (no growth)” value turned out to be 50000 µM and the “highest concentration tolerated / that allowed growth” value is on record as 20 mM. For the same molecule, in data set [3], the “concentration at which growth was completely inhibited (no growth)” value amounted to 50000 µM and the “highest concentration tolerated / that allowed growth” value was determined as 20 mM.

For `COc1ccccc1O` [Guieicol, guaiacol], the VanAB specific activity in data set [1] was 188 ± 16 U/mg; in data set [1] (listed as guaiacol), 188±16 U/mg.

As for `NC(=O)C1=CN([C@@H]2O[C@H](COP(=O)(O)OP(=O)(O)OC[C@H]3O[C@@H](n4cnc5c(N)ncnc54)[C@H](OP(=O)(O)O)[C@@H]3O)[C@@H](O)[C@H]2O)C=CC1` [NADPH, reference compound], in data set [1] (setting [7]), the KMapp is 26.7 ± 3.7 µM and the “Kcat^app” value is 0.045 ± 0.0183 s⁻¹. In addition, the Ki in data set [1] (read-out: Ki (substrate inhibition), substrate inhibition kinetics, NADPH-dependent inhibition measured in the presence of VA) stood at 25.3 ± 7.4 µM.

With `COc1cc(C=O)cc(OC)c1O` [SAL, syringaldehyde], in data set [2], the “concentration at which growth was completely inhibited (no growth)” value is 50000 µM and the “highest concentration tolerated / that allowed growth” value was found to be 20 mM. In data set [3], the “concentration at which growth was completely inhibited (no growth)” value worked out at 50000 µM and the “highest concentration tolerated / that allowed growth” value turned out to be 20 mM.

Regarding `COc1cc(C(=O)O)cc(OC)c1O` [Syringate, syringic acid], in data set [2], the “highest concentration tolerated / that allowed growth” value is “at least 120 mM”. Besides, in data set [4], the “product formed (protocatechuate from VA; 3-MGA from SA)” value turned out to be 9 µM and the residual substrate concentration is 70 µM. Besides, the VanAB specific activity in data set [1] is given as 704 ± 103 U/mg. The Kcat in data set [1] (listed as SA) was found to be 1.13 ± 0.0683 s⁻¹. In data set [3], the “highest concentration tolerated / that allowed growth” value is on record as “at least 120 mM”.

As to `COc1cc(C(=O)O)ccc1O` [Vanillate, vanillate], in data set [4], the “product formed (protocatechuate from VA; 3-MGA from SA)” value turned out to be 47 µM and the “substrate converted (metabolized)” value amounted to 58 µM. Besides, in data set [1], the VanAB specific activity was found to be 403 ± 59 U/mg.

`COc1cc(C=O)ccc1O` [Vanillin, vanillin]: the results for the VanAB specific activity in data set [1] and in data set [1] (listed as vanillin) were 49 ± 18 U/mg and 49±18 U/mg, respectively. For the same molecule, in data set [1] (VanAB specific activity relative to VA), the “fold lower specific activity in comparison to VA” value is on record as 10 fold.

B1: VanAB (vanillate demethylase; purified VanA and VanB subunits) (Pseudomonas putida KT2440) (protein)
chain: MYPKNTWYVACTPDEIATKPLGRQICGEKIVFYRARENQVAAVEDFCPHRGAPLSLGYVEDGNLVCGYHGLVMGCDGKTVSMPGQRVRGFPCNKTFAAVERYGFIWVWPGDQAQADPALIPHLEWAVSDEWAYGGGLFHIGCDYRLMIDNLMDLTHETYVHASSIGQKEIDEAPPVTTVTGDEVVTARHMENIMAPPFWRMALRGNGLADDVPVDRWQICRFTPPSHVLIEVGVAHAGKGGYHAEAQHKASSIVVDFITPESDTSIWYFWGMARNFAAHDQTLTDNIREGQGKIFSEDLEMLERQQQNLLAHPERNLLKLNIDAGGVQSRKVLERIIAQERAPQPQLIATSANPA
Take B1: in data set [5], the Michaelis constant (Km) came to 4.3 ± 3.1 µM and the kcat amounted to 0.28 ± 0.0317 s⁻¹. Moreover, in data set [6], the Km was 113.9 ± 21.5 µM and the kcat was 1.13 ± 0.0683 s⁻¹.
